Laboratory results: ChEMBL document CHEMBL2331254, “Pyrrolopyrimidine inhibitors of DNA gyrase B (GyrB) and topoisomerase IV (ParE), Part II: development of inhibitors with broad spectrum, Gram-negative antibacterial activity” (Bioorg Med Chem Lett, 2013)
Converted amounts (≈) assume the structure as drawn.

Tests used:
[1] = Inhibition of Escherichia coli GyrB assessed as release of inorganic phosphate from ATP hydrolysis after 30 mins by coupled spectrophotometric assay
[2] = tested on: Escherichia coli; assay: Antibacterial activity against wild type Escherichia coli ATCC 25922 by broth microdilution method in presence of 20% mouse serum; format: functional
[3] = tested on: Staphylococcus aureus; assay: Antibacterial activity against Staphylococcus aureus ATCC 13709 by broth microdilution method in presence of 20% mouse serum; format: functional
[4] = tested on: Escherichia coli; assay: Antibacterial activity against wild type Escherichia coli ATCC 25922 by broth microdilution method; format: functional
[5] = tested on: Acinetobacter baumannii; assay: Antibacterial activity against Acinetobacter baumannii ATCC 19606 by broth microdilution method; format: functional; details: ATCC 19606 = CIP 70.34 = JCM 6841
[6] = tested on: Streptococcus pneumoniae; assay: Antibacterial activity against Streptococcus pneumoniae ATCC 51916 by broth microdilution method; format: functional
[7] = tested on: Haemophilus influenzae; assay: Antibacterial activity against Haemophilus influenzae ATCC 49247 by broth microdilution method; format: functional
[8] = Inhibition of Francisella tularensis parE assessed as release of inorganic phosphate from ATP hydrolysis after 30 mins by coupled spectrophotometric assay
[9] = tested on: Staphylococcus aureus; assay: Antibacterial activity against Staphylococcus aureus ATCC 13709 by broth microdilution method; format: functional
[10] = tested on: Pseudomonas aeruginosa; assay: Antibacterial activity against Pseudomonas aeruginosa PAO1 by broth microdilution method; format: functional
[11] = tested on: Klebsiella pneumoniae; assay: Antibacterial activity against Klebsiella pneumoniae ATCC 700603 by broth microdilution method; format: functional
[12] = Inhibition of Escherichia coli parE assessed as release of inorganic phosphate from ATP hydrolysis after 30 mins by coupled spectrophotometric assay
[13] = Inhibition of Francisella tularensis GyrB assessed as release of inorganic phosphate from ATP hydrolysis after 30 mins by coupled spectrophotometric assay
[14] = tested on: Escherichia coli; assay: Antibacterial activity against permeabilized Escherichia coli IBAS849 by broth microdilution method; format: functional
[15] = tested on: Escherichia coli; assay: Antibacterial activity against Escherichia coli BW25113 harboring deltatolC by broth microdilution method; format: functional

| Compound | Ki [1] [nM] | MIC [2] [µg/mL] | MIC [3] [µg/mL] | MIC [4] [µg/mL] | MIC [5] [µg/mL] | MIC [6] [µg/mL] | MIC [7] [µg/mL] | Ki [8] [nM] | MIC [9] [µg/mL] | MIC [10] [µg/mL] | MIC [11] [µg/mL] | Ki [12] [nM] | Ki [13] [nM] | MIC [14] [µg/mL] | MIC [15] [µg/mL] |
| --- | --- | --- | --- | --- | --- | --- | --- | --- | --- | --- | --- | --- | --- | --- | --- |
| CCc1[nH]c2nc(Oc3cncnc3)nc(N3C[C@@H]4[C@@H](N)[C@@H]4C3)c2c1Cl | 0.4 | 2 | 2 | 4 (≈ 10.8 µM) | 16 (≈ 43 µM) | 2 (≈ 5.38 µM) | 4 (≈ 10.8 µM) | 1.8 | 1 (≈ 2.69 µM) | 32 (≈ 86.1 µM) | 64 (≈ 172 µM) | 3.4 | < 0.3 | 1 (≈ 2.69 µM) | 2 (≈ 5.38 µM) |
| CCc1[nH]c2nc(Sc3cnc4cccnc4c3)nc(N3C[C@@H]4[C@@H](N)[C@@H]4C3)c2c1Cl | < 0.3 | 8 | 0.5 | 4 (≈ 9.13 µM) | 8 (≈ 18.3 µM) | 0.13 (≈ 0.297 µM) | 4 (≈ 9.13 µM) | 0.6 | ≤ 0.06 | 8 (≈ 18.3 µM) | > 64 | < 1 |  | 1 (≈ 2.28 µM) | 0.25 (≈ 0.571 µM) |
